Laboratory results: patent USRE50528E1, “Compounds and compositions for modulating EGFR mutant kinase activities” (Yuhan Corporation, priority 2014, dated 2025)

Assays:
EGFR mutant T790M = target: T1, EGFR mutant T790M (Homo sapiens, UniProt P00533, T790M); test: Kinase inhibition assay, EGFR mutant T790M; details: biochemical potency;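 note: truncated human EGFR mutant enzyme preincubated two hours with compound, then ATP plus ULight-PolyGT peptide for one hour, Europium-labeled antibody LANCE detection, IC50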
T1 construct: truncated human JAK3, EGFR mutants such as del E746-A750; purchased Carna Biosciences

[1] = target: T2, EGFR mutant Del19 (E746-A750) (Homo sapiens, UniProt P00533, DEL746-750); test: Kinase inhibition assay, EGFR del E746-A750; format: biochemical; details: read-out: EGFR mutants Del19 (E746-A750);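 note: truncated human EGFR mutant kinase, two-hour preincubation with compound, then one-hour reaction with ATP and ULight-PolyGT peptide, LANCE Europium-antibody phosphorylation readout, IC50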
T2 construct: truncated human JAK3, EGFR mutants such as del E746-A750; purchased Carna Biosciences

EGFR mutant L858R = target: T3, EGFR mutant L858R (Homo sapiens, UniProt P00533, L858R); test: Kinase inhibition assay, EGFR L858R; format: biochemical; details: read-out: EGFR mutants L858R;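 note: truncated human EGFR L858R kinase with compound preincubation, ULight-PolyGT peptide phosphorylation read by Europium-antibody Lance detection, IC50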
T3 construct: truncated human JAK3, EGFR mutants such as del E746-A750; purchased Carna Biosciences

EGFR mutant L858R/T790M = target: T4, EGFR mutant L858R/T790M (Homo sapiens, UniProt P00533, L858R/T790M); test: Kinase inhibition assay, EGFR L858R/T790M; format: biochemical; details: read-out: EGFR mutants L858R/T790M;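 note: truncated human enzyme preincubated two hours with compound, then one hour with one millimolar ATP and ULight-PolyGT peptide, Europium-labeled antibody detection, IC50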
T4 construct: truncated human JAK3, EGFR mutants such as del E746-A750; purchased Carna Biosciences

EGFR mutant Del19/T790M = target: T5, EGFR mutant Del19/T790M (Homo sapiens, UniProt P00533, DEL746-750/T790M); test: Kinase inhibition assay, EGFR del E746-A750/T790M; format: biochemical; details: read-out: EGFR mutants Del19/T790M
T5 construct: truncated human JAK3, EGFR mutants such as del E746-A750; purchased Carna Biosciences

JAK3 = target: T6, JAK3 (Homo sapiens, UniProt P52333); test: Kinase inhibition assay, JAK3; details: biochemical potency;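 note: IC50 against purified truncated human JAK3 preincubated with compound, then reacted with ATP and ULight-Jak1 peptide, phosphorylation read by Europium-labeled antibody LANCE detection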
T6 construct: EGFR and JAK3 (JH1domain-catalytic) kinases, and mutant forms thereof; purchased Carna Biosciences

SYK = target: T7, SYK (Homo sapiens, UniProt P43405); test: Kinase inhibition assay, SYK; format: biochemical; details: biochemical potency;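 note: purified full-length human SYK pre-incubated 30 min with compound, then ULight-TK peptide phosphorylation for 1 h, detected with Europium-labeled antibody in Lance buffer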
T7 construct: Purified human, full-length SYK, KDR; purchased Carna Biosciences

KDR = target: T8, KDR (Homo sapiens, UniProt P35968); test: Kinase inhibition assay, KDR; format: biochemical; details: biochemical potency;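 note: purified full-length human KDR, 30 min preincubation with compound, then 1 h reaction with ATP and Ulight-Jak1 peptide substrate, phosphorylation read by Lance Europium antibody detection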
T8 construct: Purified human, full-length SYK, KDR; purchased Carna Biosciences

H2073 (EGFR wildtype) = test: Cell viability assay, H2073; format: cell-based; details: NCI-H2073; cellular potency; 72-hour incubation; ATPLite;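 note: NSCLC cell line whose survival relies on wildtype EGFR, treated with serially diluted compound, cytotoxic effect judged from remaining cell viability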
[2] = test system: PC9 (EGFR del E746-A750 mutant); test: Cell viability assay, PC9; format: cell-based; details: for Selectivity over wildtype, Wildtype vs mutant H2073/PC9 (fold): cellular potency ratio; for IC50: cellular potency, 72-hour incubation, ATPLite, read-out: EGFR Mutants PC9;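 for all read-outs here: NSCLC PC9 cells, whose viability relies on EGFR del E746-A750, exposed to serially diluted compound for 72 h at 37 °C, ATPLite read-out, IC50, H2073 as EGFR wildtype line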
[3] = test system: H1975 (EGFR L858R/T790M mutant); test: Cell viability assay, H1975; format: cell-based; details: for IC50: Homo sapiens, NCI-H1975, cellular potency, 72-hour incubation, ATPLite, read-out: EGFR Mutants H1975; for Selectivity over wildtype, Wildtype vs mutant H2073/H1975 (fold): cellular potency ratio;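 for all read-outs here: NSCLC cells whose survival relies on EGFR L858R/T790M, exposed 72 h to serially diluted compound, ATP-based viability readout, with the H2073 line (wildtype EGFR dependent) as wildtype comparator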

T1 sequence (P00533 669-1210 T790M limits assumed): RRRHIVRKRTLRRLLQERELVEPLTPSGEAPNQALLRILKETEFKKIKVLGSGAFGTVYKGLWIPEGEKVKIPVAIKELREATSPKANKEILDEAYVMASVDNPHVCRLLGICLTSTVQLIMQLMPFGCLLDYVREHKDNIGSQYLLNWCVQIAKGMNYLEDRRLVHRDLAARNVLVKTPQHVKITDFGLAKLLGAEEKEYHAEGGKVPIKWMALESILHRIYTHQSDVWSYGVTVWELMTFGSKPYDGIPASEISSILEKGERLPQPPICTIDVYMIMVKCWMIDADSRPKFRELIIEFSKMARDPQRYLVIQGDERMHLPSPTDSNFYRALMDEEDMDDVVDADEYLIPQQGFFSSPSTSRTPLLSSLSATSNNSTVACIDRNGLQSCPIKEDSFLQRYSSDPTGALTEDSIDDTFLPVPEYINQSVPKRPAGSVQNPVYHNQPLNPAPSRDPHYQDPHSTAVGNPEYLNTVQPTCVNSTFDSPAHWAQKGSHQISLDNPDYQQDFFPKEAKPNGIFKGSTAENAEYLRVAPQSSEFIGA
T4 sequence (P00533 669-1210 T790M/L858R limits assumed): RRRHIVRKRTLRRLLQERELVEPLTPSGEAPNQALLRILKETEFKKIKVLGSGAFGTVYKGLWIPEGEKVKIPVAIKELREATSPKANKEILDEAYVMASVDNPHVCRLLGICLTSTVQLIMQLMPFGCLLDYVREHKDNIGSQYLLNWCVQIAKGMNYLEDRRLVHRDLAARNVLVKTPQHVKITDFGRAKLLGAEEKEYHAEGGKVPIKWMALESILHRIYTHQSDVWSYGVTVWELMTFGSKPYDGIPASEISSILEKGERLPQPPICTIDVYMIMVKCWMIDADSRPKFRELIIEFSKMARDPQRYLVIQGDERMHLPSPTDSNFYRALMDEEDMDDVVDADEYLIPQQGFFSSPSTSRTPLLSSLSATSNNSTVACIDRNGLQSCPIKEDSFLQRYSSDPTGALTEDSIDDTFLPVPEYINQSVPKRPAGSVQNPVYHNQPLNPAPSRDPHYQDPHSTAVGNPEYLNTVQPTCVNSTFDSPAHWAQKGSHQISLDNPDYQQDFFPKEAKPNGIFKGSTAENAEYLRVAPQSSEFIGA
T8 sequence (P35968 20-1356): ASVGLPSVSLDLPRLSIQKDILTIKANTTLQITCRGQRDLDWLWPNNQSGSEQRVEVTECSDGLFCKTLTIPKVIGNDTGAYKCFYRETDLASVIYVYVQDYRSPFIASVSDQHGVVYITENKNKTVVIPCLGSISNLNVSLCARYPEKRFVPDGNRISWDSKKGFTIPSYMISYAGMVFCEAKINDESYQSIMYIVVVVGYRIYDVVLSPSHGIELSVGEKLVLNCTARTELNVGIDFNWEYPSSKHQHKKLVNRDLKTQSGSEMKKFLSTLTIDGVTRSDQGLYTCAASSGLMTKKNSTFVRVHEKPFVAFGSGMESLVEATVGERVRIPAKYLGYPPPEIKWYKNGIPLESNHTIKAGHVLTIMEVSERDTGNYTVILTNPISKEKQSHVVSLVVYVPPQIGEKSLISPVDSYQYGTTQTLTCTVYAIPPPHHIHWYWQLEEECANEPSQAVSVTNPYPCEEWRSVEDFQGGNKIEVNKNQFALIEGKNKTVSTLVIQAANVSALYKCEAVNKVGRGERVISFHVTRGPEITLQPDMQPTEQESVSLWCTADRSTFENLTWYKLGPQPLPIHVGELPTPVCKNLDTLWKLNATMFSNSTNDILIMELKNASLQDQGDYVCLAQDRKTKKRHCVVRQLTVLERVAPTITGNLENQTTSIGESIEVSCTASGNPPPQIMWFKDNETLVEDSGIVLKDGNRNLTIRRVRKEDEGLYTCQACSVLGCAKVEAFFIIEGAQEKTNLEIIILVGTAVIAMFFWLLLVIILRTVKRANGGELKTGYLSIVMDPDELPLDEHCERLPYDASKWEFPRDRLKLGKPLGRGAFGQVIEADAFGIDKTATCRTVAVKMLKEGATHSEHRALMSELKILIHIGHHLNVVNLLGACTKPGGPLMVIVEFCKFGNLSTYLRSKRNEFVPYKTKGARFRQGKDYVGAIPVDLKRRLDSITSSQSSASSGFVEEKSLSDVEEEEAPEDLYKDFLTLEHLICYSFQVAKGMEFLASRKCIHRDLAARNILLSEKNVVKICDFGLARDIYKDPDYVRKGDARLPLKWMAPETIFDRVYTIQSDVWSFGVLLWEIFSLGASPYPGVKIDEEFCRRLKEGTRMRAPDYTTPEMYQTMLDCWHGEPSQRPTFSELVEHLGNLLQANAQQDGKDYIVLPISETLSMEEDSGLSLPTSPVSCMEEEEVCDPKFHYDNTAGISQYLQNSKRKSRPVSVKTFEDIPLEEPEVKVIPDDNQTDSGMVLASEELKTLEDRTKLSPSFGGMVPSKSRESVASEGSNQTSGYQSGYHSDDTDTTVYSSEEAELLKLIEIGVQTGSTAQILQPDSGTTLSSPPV
T3 sequence (P00533 669-1210 L858R limits assumed): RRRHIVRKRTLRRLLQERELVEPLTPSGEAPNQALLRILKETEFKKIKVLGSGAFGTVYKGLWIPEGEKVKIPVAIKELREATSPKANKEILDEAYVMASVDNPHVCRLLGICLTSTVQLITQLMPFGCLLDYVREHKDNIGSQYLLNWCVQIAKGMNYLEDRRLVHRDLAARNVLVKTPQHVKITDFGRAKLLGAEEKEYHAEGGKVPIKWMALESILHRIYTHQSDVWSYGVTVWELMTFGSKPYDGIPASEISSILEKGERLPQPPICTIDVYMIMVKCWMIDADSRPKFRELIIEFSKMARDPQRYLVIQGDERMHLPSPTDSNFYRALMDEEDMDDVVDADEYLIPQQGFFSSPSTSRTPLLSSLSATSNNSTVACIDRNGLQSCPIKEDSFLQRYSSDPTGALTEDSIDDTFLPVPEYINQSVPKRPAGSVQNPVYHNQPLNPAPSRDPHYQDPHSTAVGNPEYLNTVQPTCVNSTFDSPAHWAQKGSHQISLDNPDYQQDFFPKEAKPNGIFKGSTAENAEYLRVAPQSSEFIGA
T2 sequence (P00533 with tags, fused parts or gaps DEL746-750 limits assumed): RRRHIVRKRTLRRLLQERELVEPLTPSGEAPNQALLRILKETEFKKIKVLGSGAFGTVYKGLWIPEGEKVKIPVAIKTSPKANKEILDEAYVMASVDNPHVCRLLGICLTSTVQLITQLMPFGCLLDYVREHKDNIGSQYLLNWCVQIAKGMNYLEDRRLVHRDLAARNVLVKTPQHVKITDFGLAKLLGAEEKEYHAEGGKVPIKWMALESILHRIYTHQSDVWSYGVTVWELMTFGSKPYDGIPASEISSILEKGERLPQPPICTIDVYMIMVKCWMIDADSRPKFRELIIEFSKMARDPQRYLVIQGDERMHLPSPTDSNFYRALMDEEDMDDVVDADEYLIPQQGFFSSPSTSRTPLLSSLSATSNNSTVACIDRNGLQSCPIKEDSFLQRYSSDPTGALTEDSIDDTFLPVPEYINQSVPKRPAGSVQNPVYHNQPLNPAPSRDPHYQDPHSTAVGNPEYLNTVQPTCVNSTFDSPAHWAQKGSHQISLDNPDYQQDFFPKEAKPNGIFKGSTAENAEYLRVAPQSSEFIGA
T5 sequence (P00533 with tags, fused parts or gaps DEL746-750/T790M limits assumed): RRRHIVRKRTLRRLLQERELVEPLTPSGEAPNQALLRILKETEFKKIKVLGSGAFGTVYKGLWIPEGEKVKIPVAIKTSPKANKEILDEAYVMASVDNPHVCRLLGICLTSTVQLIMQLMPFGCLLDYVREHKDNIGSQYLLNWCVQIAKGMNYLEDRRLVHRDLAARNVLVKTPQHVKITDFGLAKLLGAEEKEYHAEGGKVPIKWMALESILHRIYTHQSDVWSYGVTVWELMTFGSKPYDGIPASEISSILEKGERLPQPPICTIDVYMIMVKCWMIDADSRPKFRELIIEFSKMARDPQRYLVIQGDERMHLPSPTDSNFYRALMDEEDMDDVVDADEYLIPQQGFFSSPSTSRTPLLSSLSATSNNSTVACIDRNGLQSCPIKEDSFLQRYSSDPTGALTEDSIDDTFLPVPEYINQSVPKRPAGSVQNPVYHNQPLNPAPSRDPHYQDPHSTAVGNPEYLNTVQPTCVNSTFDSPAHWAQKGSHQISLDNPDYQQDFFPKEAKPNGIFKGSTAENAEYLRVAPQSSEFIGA
T6 sequence (P52333 822-1111 limits assumed): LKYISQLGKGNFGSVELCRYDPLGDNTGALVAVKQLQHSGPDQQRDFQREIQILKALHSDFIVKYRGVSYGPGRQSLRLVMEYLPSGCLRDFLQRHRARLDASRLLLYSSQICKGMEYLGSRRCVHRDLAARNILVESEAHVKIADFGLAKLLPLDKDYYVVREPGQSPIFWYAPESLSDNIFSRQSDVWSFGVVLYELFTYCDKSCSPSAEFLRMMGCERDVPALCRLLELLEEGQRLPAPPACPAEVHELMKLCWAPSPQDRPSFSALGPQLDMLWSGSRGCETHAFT

| IC50 (EGFR mutant T790M) | IC50 [1] | IC50 (EGFR mutant L858R) | IC50 (EGFR mutant L858R/T790M) | IC50 (EGFR mutant Del19/T790M) | IC50 (JAK3) | IC50 (SYK) | IC50 (KDR) | IC50 (H2073 (EGFR wildtype)) | IC50 [2] | IC50 [3] | Compound | Selectivity over wildtype, Wildtype vs mutant H2073/PC9 (fold) [2] | Selectivity over wildtype, Wildtype vs mutant H2073/H1975 (fold) [3] |
| --- | --- | --- | --- | --- | --- | --- | --- | --- | --- | --- | --- | --- | --- |
| < 20 nM | < 20 nM | 20 to 200 nM | < 20 nM | < 20 nM | < 20 nM | > 1000 nM | > 1000 nM | > 1000 nM | 20 to 200 nM | 201 to 1000 nM | C=CC(=O)Nc1cc(Nc2ncc(Cl)c(-n3cc(CN4C[C@@H](O)[C@@H](O)C4)c(C)n3)n2)c(OC)cc1N1CCN(C)CC1 [Compound 54, N-(5-(5-chloro-4-(4-(((3R,4S)-3,4-dihydroxypyrrolidin-1-yl)methyl)-3-methyl-1H-pyrazol-1-yl)pyrimidin-2-ylamino)-4-methoxy-2-(4-methylpiperazin-1-yl)phenyl)acrylamide] | 20-100 fold | <20 fold |
| < 20 nM | < 20 nM | < 20 nM | < 20 nM | < 20 nM | < 20 nM | > 1000 nM | > 1000 nM | > 1000 nM | < 20 nM | 20 to 200 nM | C=CC(=O)Nc1cc(Nc2nccc(-n3cc(CN4CCC4)c(C4CC4)n3)n2)c(OC)cc1N1CCOCC1 [Compound 55, N-(5-(4-(4-(azetidin-1-ylmethyl)-3-cyclopropyl-1H-pyrazol-1-yl)pyrimidin-2-ylamino)-4-methoxy-2-morpholinophenyl)acrylamide] | >200 fold | 101-200 fold |
| < 20 nM | < 20 nM | < 20 nM | < 20 nM | < 20 nM | < 20 nM | > 1000 nM | > 1000 nM | > 1000 nM | 20 to 200 nM | 20 to 200 nM | C=CC(=O)Nc1cc(Nc2ncc(F)c(-n3cc(CN4CCC4)c(C)n3)n2)c(OC)cc1N1CCOCC1 [Compound 62, N-(5-(4-(4-(azetidin-1-ylmethyl)-3-methyl-1H-pyrazol-1-yl)-5-fluoropyrimidin-2-ylamino)-4-methoxy-2-morpholinophenyl)acrylamide] | >200 fold | >200 fold |
| < 20 nM | < 20 nM | < 20 nM | < 20 nM | < 20 nM | < 20 nM | 201 to 1000 nM | > 1000 nM | > 1000 nM | < 20 nM | < 20 nM | C=CC(=O)Nc1cc(Nc2nccc(-n3cc(CN(C)C)c(C)n3)n2)c(OC)cc1N(C)C [Compound 71, N-(2-(dimethylamino)-5-(4-(4-((dimethylamino)methyl)-3-methyl-1H-pyrazol-1-yl)pyrimidin-2-ylamino)-4-methoxyphenyl)acrylamide] | >200 fold | >200 fold |
| < 20 nM | < 20 nM | < 20 nM | < 20 nM | < 20 nM | < 20 nM | 20 to 200 nM | > 1000 nM | > 1000 nM | 20 to 200 nM | 20 to 200 nM | C=CC(=O)Nc1cc(Nc2ncc(C)c(-n3cc(CN(C)C)c(C)n3)n2)c(OC)cc1N1CCOCC1 [Compound 75, N-(5-(4-(4-((dimethylamino)methyl)-3-methyl-1H-pyrazol-1-yl)-5-methylpyrimidin-2-ylamino)-4-methoxy-2-morpholinophenyl)acrylamide] | 101-200 fold | 101-200 fold |
| < 20 nM | < 20 nM | < 20 nM | < 20 nM | < 20 nM | < 20 nM | 201 to 1000 nM | > 1000 nM | > 1000 nM | 20 to 200 nM | 20 to 200 nM | C=CC(=O)Nc1cc(Nc2ncc(C)c(-n3cc(CN4CCC4)c(C)n3)n2)c(OC)cc1N1CCOCC1 [Compound 76, N-(5-(4-(4-(azetidin-1-ylmethyl)-3-methyl-1H-pyrazol-1-yl)-5-methylpyrimidin-2-ylamino)-4-methoxy-2-morpholinophenyl)acrylamide] | 101-200 fold | 101-200 fold |
| < 20 nM | < 20 nM | < 20 nM | < 20 nM | < 20 nM | < 20 nM | 201 to 1000 nM | > 1000 nM | > 1000 nM | 20 to 200 nM | 20 to 200 nM | C=CC(=O)Nc1cc(Nc2nccc(-n3cc(CN(C)C)c(C)n3)n2)c(OC)cc1N1CCN(CCF)CC1 [Compound 79, N-(5-(4-(4-((dimethylamino)methyl)-3-methyl-1H-pyrazol-1-yl)pyrimidin-2-ylamino)-2-(4-(2-fluoroethyl)piperazin-1-yl)-4-methoxyphenyl)acrylamide] | 101-200 fold | 101-200 fold |
| < 20 nM | < 20 nM | < 20 nM | < 20 nM | < 20 nM | < 20 nM | 201 to 1000 nM | > 1000 nM | > 1000 nM | < 20 nM | < 20 nM | C=CC(=O)Nc1cc(Nc2ncc(C)c(-n3cc(CN4CCC4)c(C4CC4)n3)n2)c(OC)cc1N1CCOCC1 [Compound 123, N-(5-(4-(4-(azetidin-1-ylmethyl)-3-cyclopropyl-1H-pyrazol-1-yl)-5-methylpyrimidin-2-ylamino)-4-methoxy-2-morpholinophenyl)acrylamide] | >200 fold | >200 fold |
| < 20 nM | < 20 nM | < 20 nM | < 20 nM | < 20 nM | < 20 nM | 20 to 200 nM | > 1000 nM | > 1000 nM | < 20 nM | < 20 nM | C=CC(=O)Nc1cc(Nc2ncc(C)c(-n3cc(CN(C)C)c(C(C)C)n3)n2)c(OC)cc1N1CCOCC1 [Compound 124, N-(5-(4-(4-((dimethylamino)methyl)-3-isopropyl-1H-pyrazol-1-yl)-5-methylpyrimidin-2-ylamino)-4-methoxy-2-morpholinophenyl)acrylamide] | >200 fold | >200 fold |
